Data reported in patent US20110206756A1, “DITHI[…] CHELATES AND METHODS OF MAKING AND USING THEREOF” (UNIVERSITY OF UTAH RESEARCH FOUNDATION, priority 2008, published 2011).

What was measured:
[1] = tested on: HL-60 myeloid leukemia cell line; details: in P123 Pluronic micelles; for cell growth inhibition compared with vehicle: HL-60, up to 0.24 μM, 3 days
Method: The in vitro anti-leukemic activity of both chelates using the HL-60 myeloid leukemia cell line was compared. […] The DETC/metal chelates were initially dissolved in dimethylsulfoxide (DMSO). This 2 mM DETC/metal stock in DMSO was then mixed with a polymer stock and micellization was allowed to occur at room temperature. The final polymer concentration was 2% by weight. […] DETC/metal chelates were added at concentrations of up to 0.24 μM. Cell growth was assessed after 3 days using the MTS assay.

HL-60 cells [2] = details: HL-60, 0.32 μM, 24 hours, average and SEM of 3 experiments; controls 7±1%
Method: HL-60 cells were treated with DETC/Cu^2+ at a concentration of 0.32 μM for 24 hours upon which the number of apoptotic cells was determined using propidium iodide (PI) staining and flow cytometry. Analysis for the presence of apoptotic cells was modeled using the ModFit software.

HL-60 cells [3] = experiment: Leukemia cell growth in vivo, HL-60 flank tumors in mice; parameters: species or system NOD/SCID IL2Rγ^null mice
From the text: In another preliminary experiment, the effect of DETC/metal chelates on leukemia cell growth in vivo was studied. NOD/SCID IL2Rγ^null mice were implanted bilaterally in the flanks with 19×10^6 HL-60 cells. […] The experiment was terminated on day 15. At that point 3 out of 4 control animals had died and the one remaining alive had tumor volumes that had exceeded 10% of initial body weight. None of the animals treated with DETC/Cu died.

[4] = tested on: colon cancer cell line DLD-1; details: read-out: 50% growth inhibitory concentration (IC50); DLD-1, two days, in P123 micelles
Method: (§1) The effect of DETC/Cu^2+ chelates on the growth of 3 solid tumor cell lines in vitro was studied. The cell lines studied were the colon cancer cell line DLD-1, the prostate cancer cell line PPC-1 and the hepatoma cell line Hep-3B. […] Cells in logarithmic growth phase were cultured in RPMI1640/10% FBS media at a concentration of 120,000 cells/mL. DETC/Cu^2+ was added to the cells at concentrations ranging from 0 to 1 μM. […] Two days after drug addition, cell growth was assayed using the CellTiter 96 assay from Promega (Madison, Wis.) using the manufacturer's protocol.

[5] = tested on: prostate cancer cell line PPC-1; details: read-out: 50% growth inhibitory concentration (IC50); PPC-1, two days, in P123 micelles
Method: as §1

[6] = tested on: hepatoma cell line Hep-3B; details: read-out: 50% growth inhibitory concentration (IC50), two days, in P123 micelles
Method: as §1

Row | Compound | cell growth inhibition compared with vehicle [1] | apoptotic cells (HL-60 cells [2]) | toxicity (HL-60 cells [3]; 2 μmol/kg intravenously every other day, in P123 micelles) | tumor volume, tumor growth (HL-60 cells [3]; after 12 days of therapy, 2 μmol/kg i.v. every other day, versus P123 micelle controls) | animals that died (HL-60 cells [3]; day 15, 4 mice per group, 3 out of 4 controls died) | IC50 [4] | relative potency of growth inhibition ([1]; HL-60, 3 days) | IC50 [5] | IC50 [6]
1 | CCN(CC)C(=S)[S-].[Ag+] [DETC/Ag^+, silver salt of diethyldithiocarbamate] | growth inhibition to a much greater extent |  |  |  |  |  |  |  | 
2 | CCN(CC)C(=S)[S-].CCN(CC)C(=S)[S-].[Cu+2] [DETC/Cu^2+, copper salt of diethyldithiocarbamate] | growth inhibition to a much greater extent | 16±2% | No obvious toxicity | delay in tumor growth | None | 0.37 µM | more potent than the DETC/Ag^+ chelate | 0.18 µM | 0.13 µM
